We go through three compounds from ChEMBL document CHEMBL3217708, “2-Anilinonicotinyl linked 1,3,4-oxadiazole derivatives: Synthesis, antitumour activity and inhibition of tubulin polymerization” (2011).

Assay [1] concerns A549. The assay is described as follows: Cell cycle arrest in human A549 cells assessed as accumulation at G2/M phase at 1 uM after 48 hrs by propidium iodide staining based flow cytometry (reference value: 10%). In kind it is functional. (In general: In flow cytometry, cells or beads pass a laser one at a time.)
Assay [2] deals with A549. Briefly: Inhibition of alpha-tubulin polymerization in human A549 cells assessed as ratio of soluble to polymerized tubulin at 1 uM after 24 hrs by western blot analysis. It counts as functional. In general terms: In western blotting, separated proteins are transferred to a membrane and probed.
Assay [3] has as its system A549. Briefly: Induction of apoptosis in human A549 cells assessed as caspase-9 activation at 1 uM after 24 hrs by fluorimetry relative to control. In kind it is functional.
Assay [4] has as its system A549. The assay is described as follows: Induction of apoptosis in human A549 cells assessed as caspase-3 activation at 1 uM after 24 hrs by fluorimetry relative to control. In kind it is functional.
The next assay deals with MDA-MB-231. The assay is described as follows: Growth inhibition of human MDA-MB-231 cells after 48 hrs by sulforhodamine B assay. Conditions: MDA-MB-231, 48 h. In kind it is functional. On the technique in general: In SRB staining, fixed cells bind dye roughly in proportion to their protein.
The next assay concerns HepG2. The assay is described as follows: Growth inhibition of human HepG2 cells after 48 hrs by sulforhodamine B assay. In kind it is functional. Conditions: HepG2, 48 h.
Assay [5] concerns A549. The assay is described as follows: Growth inhibition of human A549 cells after 48 hrs by sulforhodamine B assay. In kind it is functional. The settings on record: A549, 48 h.
Another assay relates to HeLa. The assay is described as follows: Growth inhibition of human HeLa cells after 48 hrs by sulforhodamine B assay. It counts as functional.
Another assay concerns DU-145. The assay is described as follows: Growth inhibition of human DU145 cells after 48 hrs by sulforhodamine B assay. It counts as functional. Conditions: DU-145, 48 h.
The target of a further assay is Tubulin (Bos taurus) (UniProt Q6B856+Q862L2+Q862F3). Briefly: Inhibition of bovine brain tubulin polymerization at 3 uM measured for 1 hr by fluorimetric assay.
Assay [6] deals with A549. Briefly: Cell cycle arrest in human A549 cells assessed as accumulation at G1 phase at 1 uM after 48 hrs by propidium iodide staining based flow cytometry (reference value: 78%). It counts as functional.
In assay [7] the test system is A549. Briefly: Cell cycle arrest in human A549 cells assessed as accumulation at S phase at 1 uM after 48 hrs by propidium iodide staining based flow cytometry (reference value: 10%). In kind it is functional.

The GI50 is the concentration that inhibits growth by half. A low value points to more potent growth inhibition. As usually defined, the inhibition is the relative decrease from the control value, in per cent. For `COC(=O)Nc1nc2cc(C(=O)c3cccs3)ccc2[nH]1` [NOCODAZOLE], the Activity came out at 18% in the assay with A549 [1], 55% in the assay on A549 [6] and 25% in the assay with A549 [7]. The Ratio in the assay with A549 [2] is given as 6. Also, the “fold change (FC)” value in the assay on A549 [3] and in the assay on A549 [4] was 4 in each case. In addition, the GI50 worked out at 150 nM in the assay with MDA-MB-231; 760 nM in the assay with HepG2; 210 nM in the assay with A549 [5]; 750 nM in the assay on HeLa; 190 nM in the assay on DU-145. Besides, the inhibition on Tubulin (Bos taurus) was 70%.

`COc1cc(Nc2ncccc2-c2nnc(Nc3ccc(Cl)cc3)o2)cc(OC)c1OC`: the inhibition on Tubulin (Bos taurus) was 38%.

At Tubulin (Bos taurus), `COc1cc(Nc2nnc(-c3cccnc3Nc3cc(OC)c(OC)c(OC)c3)o2)cc(OC)c1OC` gave an inhibition of 41%.
